Source: US20150105252A1, “SUBSTITUTED PYRAZOLES AS HERBICIDES” (E I DU PONT DE NEMOURS AND COMPANY, priority 2013, published 2015)

How the values were obtained:
bromegrass, downy = test: Test C postemergence; assay type: in vivo, Bromus tectorum; details: for Bromegrass, Downy plant response rating: scale 0 to 100
Text: (§1) Seeds of plant species selected from blackgrass (Alopecurus myosuroides), ryegrass, Italian (Italian ryegrass, Lolium multiflorum), wheat (winter wheat, Triticum aestivum), galium (catchweed bedstraw, Galium aparine), corn (Zea mays), crabgrass, large (large crabgrass, Digitaria sanguinalis), foxtail, giant (giant foxtail, Setaria faberii), johnsongrass (Sorghum halepense), lambsquarters (Chenopodium album), morningglory (Ipomoea coccinea), nutsedge, yellow (yellow nutsedge, Cyperus esculentus), pigweed (redroot pigweed, Amaranthus retroflexus), ragweed (common ragweed, Ambrosia elation), soybean (Glycine max), barnyardgrass (Echinochloa crus-galli), oilseed rape (Brassica napus), waterhemp (common waterhemp, Amaranthus rudis), oat, wild (wild oat, Avena fatua), kochia (Kochia scoparia), Surinam grass (Brachiaria decumbens), foxtail, green (green foxtail, Setaria viridis), goosegrass (Eleusine indica), bromegrass, downy (downy bromegrass, Bromus tectorum), nightshade (eastern black nightshade, Solanum ptycanthum), cocklebur (common cocklebur, Xanthium strumarium), cupgrass, woolly (woolly cupgrass, Eriochloa villosa), bermudagrass (Cynodon dactylon), sunflower, (common oilseed sunflower, Helianthus annuus), Russian thistle (Salsola kali), and velvetleaf (Abutilon theophrasti) were planted into a blend of loam soil and sand and treated preemergence with test chemicals formulated in a non-phytotoxic solvent mixture which included a surfactant.
(§2) At the same time, plants selected from these crop and weed species and also chickweed (common chickweed, Stellaria media), canarygrass (littleseed canarygrass, Phalaris minor), and deadnettle (henbit deadnettle, Lamium amplexicaule), were planted in pots containing Redi-Earth® planting medium (Scotts Company, 14111 Scottslawn Road, Marysville, Ohio 43041) comprising spaghnum peat moss, vermiculite, wetting agent and starter nutrients and treated with postemergence applications of test chemicals formulated in the same manner. Plants ranged in height from 2 to 18 cm (1- to 4-leaf stage) for postemergence treatments. Treated plants and controls were maintained in a greenhouse for 13 to 15 days, after which time all species were compared to controls and visually evaluated. Plant response ratings, summarized in Table C, are based on a scale of 0 to 100 where 0 is no effect and 100 is complete control. A dash (-) response means no test result.

barley [1] = test: Test C postemergence; assay type: in vivo, Hordeum vulgare; details: scale 0 to 100, 0 no effect, 100 complete control
canarygrass = test: Test C postemergence; assay type: in vivo, Phalaris minor; details: for Canarygrass plant response rating: scale 0 to 100
Text: as §1, §2

barley [2] = test: Test C postemergence; assay type: in vivo, Hordeum vulgare; details: scale 0 to 100
Russian thistle = test: Test D preemergence; assay type: in vivo, Salsola kali; details: for Plant response rating (scale 0 to 100), Russian Thistle: 16 g ai/ha, taken as preemergence; for Plant response rating, Russian Thistle: Preemergence, scale 0 to 100
Text: Seeds of plant species selected from bluegrass (annual bluegrass, Poa annua), blackgrass (Alopecurus myosuroides), canarygrass (littleseed canarygrass, Phalaris minor), chickweed (common chickweed, Stellaria media), galium (catchweed bedstraw, Galium aparine), bromegrass, downy (downy bromegrass, Bromus tectorum), field poppy (Papaver rhoeas), field violet (Viola arvensis), foxtail, green (green foxtail, Setaria viridis), deadnettle (henbit deadnettle, Lamium amplexicaule), ryegrass, Italian (Italian ryegrass, Lolium multiflorum), kochia (Kochia scoparia), lambsquarters (Chenopodium album), oilseed rape (Brassica napus), pigweed (redroot pigweed, Amaranthus retroflexus), chamomile (scentless chamomile, Matricaria inodora), speedwell (bird's-eye speedwell, Veronica persica), barley, spring (spring barley, Hordeum vulgare), wheat, spring (spring wheat, Triticum aestivum), buckwheat, wild (wild buckwheat, Polygonum convolvulus), mustard, wild (wild mustard, Sinapis arvensis), oat, wild (wild oat, Avena fatua), radish, wild (wild radish, Raphanus raphanistrum), windgrass (Apera spica-venti), Russian thistle (Salsola kali), barley, winter (winter barley, Hordeum vulgare), and wheat, winter (winter wheat, Triticum aestivum) were planted into a silt loam soil and treated preemergence with test chemicals formulated in a non-phytotoxic solvent mixture which included a surfactant.
At the same time, these species were planted in pots containing Redi-Earth® planting medium (Scotts Company, 14111 Scottslawn Road, Marysville, Ohio 43041) comprising spaghnum peat moss, vermiculite, wetting agent and starter nutrients and treated with postemergence applications of the test chemicals formulated in the same manner. Plants ranged in height from 2 to 18 cm (1- to 4-leaf stage). Treated plants and controls were maintained in a controlled growth environment for 14 to 21 days after which time all species were compared to controls and visually evaluated. Plant response ratings, summarized in Table D, are based on a scale of 0 to 100 where 0 is no effect and 100 is complete control. A dash (-) response means no test result.

goosegrass = test: Test C preemergence; assay type: in vivo, Eleusine indica; details: for Plant response rating (scale of 0 to 100), Goosegrass: Preemergence, 250 g ai/ha; for Goosegrass plant response rating / Plant response rating, Goosegrass: preemergence; for Plant response rating, Goosegrass: 62 g ai/ha, scale 0 to 100, 0 = no effect, 100 = complete control
Text: as §1, §2

barnyardgrass = test: Test F preemergence; assay type: in vivo, Echinochloa crus-galli
Text: Seeds of plant species selected from corn (Zea mays), soybean (Glycine max), velvetleaf (Abutilon theophrasti), lambsquarters (Chenopodium album), wild poinsettia (Euphorbia heterophylla), pigweed, palmer (palmer pigweed, Amaranthus palmeri), common waterhemp (Amaranthus rudis), surinam grass (Brachiaria decumbens), large crabgrass (Digitaria sanguinalis), crabgrass, Brazil (Brazilian crabgrass, Digitaria horizontalis), fall panicum (Panicum dichotomiflorum), giant foxtail (Setaria faberii), green foxtail (Setaria viridis), goosegrass (Eleusine indica), johnsongrass (Sorghum halepense), common ragweed (Ambrosia elation), barnyardgrass (Echinochloa crus-galli), southern sandbur (Cenchrus echinatus), arrowleaf sida (Sida rhombifolia), Italian ryegrass (Lolium multiflorum), dayflower, VA (Virginia (VA) dayflower, Commelina virginica), field bindweed (Convolvulus arvensis), cocklebur (common cocklebur, Xanthium strumarium), morningglory (Ipomoea coccinea), nightshade (eastern black nightshade, Solanum ptycanthum), kochia (Kochia scoparia), yellow nutsedge (Cyperus esculentus), and hairy beggarticks (Bidens pilosa), were planted into a silt loam soil and treated preemergence with test chemicals formulated in a non-phytotoxic solvent mixture which included a surfactant.
At the same time, plants from these crop and weed species and also horseweed (Canada horseweed, Conyza canadensis), smartweed (ladysthumb smartweed, Polygonum persicaria), waterhemp_RES1, (ALS & Triazine resistant common waterhemp, Amaranthus rudis), and waterhemp_RES2, (ALS & HPPD resistant common waterhemp, Amaranthus rudis) were treated with postemergence applications of test chemicals formulated in the same manner. Plants ranged in height from 2 to 18 cm for postemergence treatments (1- to 4-leaf stage). Treated plants and controls were maintained in a greenhouse for 14 to 21 days, after which time all species were compared to controls and visually evaluated. Plant response ratings, summarized in Table F, are based on a scale of 0 to 100 where 0 is no effect and 100 is complete control. A dash (-) response means no test result.

[3] = postemergence, 250 g ai/ha, scale 0 to 100 (0 no effect, 100 complete control)
[4] = postemergence, 62 g ai/ha, scale 0 to 100, 0 no effect, 100 complete control
[5] = postemergence, 125 g ai/ha, scale 0 to 100, 0 no effect, 100 complete control
[6] = 31 g ai/ha, scale 0 to 100 (0 no effect, 100 complete control), 13 to 15 days
[7] = 125 g ai/ha, scale 0 to 100, 0 is no effect, 100 is complete control
[8] = Preemergence, 62 g ai/ha, scale 0 to 100
[9] = Preemergence, 125 g ai/ha, scale 0 to 100
[10] = preemergence, 16 g ai/ha, scale 0 to 100, 100 is complete control
[11] = Preemergence, 250 g ai/ha, scale 0 to 100

SMILES	Bromegrass, Downy plant response rating (bromegrass, downy; Postemergence, 31 g ai/ha)	Plant response rating, Bromegrass, Downy (bromegrass, downy; [3])	Plant response rating, Bromegrass, Downy (bromegrass, downy; [4])	Plant response rating, Bromegrass, Downy (bromegrass, downy; [5])	Plant response rating, Barley (barley [1]; 62 g ai/ha)	Canarygrass plant response rating (canarygrass; Postemergence, 31 g ai/ha)	Plant response rating, Canarygrass (canarygrass; [3])	Plant response rating, Canarygrass (canarygrass; [4])	Plant response rating, Canarygrass (canarygrass; [5])	Barley plant response rating (barley [2]; Postemergence, 31 g ai/ha)	Plant response rating, Russian Thistle (Russian thistle; 31 g ai/ha)	Plant response rating, Russian Thistle (Russian thistle; 62 g ai/ha)	Plant response rating, Russian Thistle (Russian thistle; 125 g ai/ha)	Plant response rating, Barley (barley [1]; 125 g ai/ha)	Plant response rating (scale of 0 to 100), Goosegrass (goosegrass)	Goosegrass plant response rating (goosegrass; [6])	Plant response rating, Goosegrass (goosegrass; 13 to 15 days)	Goosegrass plant response rating (goosegrass; [7])	Plant response rating, Barnyardgrass (barnyardgrass; [8])	Plant response rating, Barnyardgrass (barnyardgrass; [9])	further results
CCc1cc(C(=O)NCC(F)(F)F)nn1Cc1cccc(OC(F)(F)F)c1 [Compound 20]	0	10	0	5	20	5	15	10	15	15											
CCCNC(=O)c1cc(CC)n(Cc2cccc(OC(F)(F)F)c2)n1 [Compound 27]	0	10	5	5	20	5	10	5	10	10											
CCc1cc(C(=O)NOC(C)C)nn1Cc1cccc(OC(F)(F)F)c1 [Compound 70]	0	5	0	5	5	0	60	5	15	0	0	90	90	10	98	60	80	95			Plant response rating (scale 0 to 100), Russian Thistle (Russian thistle): 0; Plant response rating, Russian Thistle (Russian thistle; 250 g ai/ha): 100
CCONC(=O)c1cc(CC)n(Cc2cccc(OC(F)(F)F)c2)n1 [Compound 72]	5	15		15		5	30		20	0				5	98	75	98	98			Bromegrass, Downy plant response rating (bromegrass, downy; postemergence, 62 g ai/ha): 5; Canarygrass plant response rating (canarygrass; postemergence, 62 g ai/ha): 10; Barley plant response rating (barley [2]; postemergence, 62 g ai/ha): 5
Cc1cc(C(=O)NCC(F)(F)F)nn1Cc1ccnc(C(F)(F)F)c1 [Compound 74]	0	0		0		0	5		0	0	70	85	95	0	100	75	85	100			Bromegrass, Downy plant response rating (bromegrass, downy; postemergence, 62 g ai/ha): 0; Canarygrass plant response rating (canarygrass; postemergence, 62 g ai/ha): 0; Barley plant response rating (barley [2]; postemergence, 62 g ai/ha): 0
CCc1cc(C(=O)NC2CC2)nn1Cc1ccnc(C(F)(F)F)c1 [Compound 76]											65	70	80								Plant response rating (scale 0 to 100), Russian Thistle (Russian thistle): 50; Plant response rating, Russian Thistle (Russian thistle; 250 g ai/ha): 95
CCc1cc(-c2ccc(C(F)(F)F)cc2)nn1Cc1ccnc(C(F)(F)F)c1 [Compound 110]																			10	35	Plant response rating, Barnyardgrass (barnyardgrass; Preemergence, 31 g ai/ha, scale 0 to 100): 0; Plant response rating, Barnyardgrass (barnyardgrass; preemergence, 8 g ai/ha, scale 0 to 100, 100 is complete control): 0; Plant response rating, Barnyardgrass (barnyardgrass; [10]): 0
CCCc1cc(C(=O)NC(C)C)nn1Cc1cc(C(F)(F)F)nn1C [Compound 201]																			10	85	Plant response rating, Barnyardgrass (barnyardgrass; Preemergence, 16 g ai/ha, scale 0 to 100): 0; Plant response rating, Barnyardgrass (barnyardgrass; [11]): 95; Plant response rating, Barnyardgrass (barnyardgrass; [10]): 0
CCc1cc(C(=O)NCC(F)(F)F)nn1Cc1ccnc(Br)c1 [Compound 224]																			0	40	Plant response rating, Barnyardgrass (barnyardgrass; [11]): 70
